System: cells contaminated with mycoplasma
Test: Mycoplasma removal potential when amphidinol derivative was used, by filter pore size
Assay type: cell-based
Protocol: A medium was removed from the cell culture (80 to 90% confluent) which was cultured in the T-75 culture flask in (1) of Example 3 and which was confirmed as being contaminated with mycoplasma. The obtained cells were washed twice with 10 ml of a phosphate buffer solution. 2 ml of trypsin-EDTA was added thereto, followed by incubating at a temperature of 37° C. for 10 minutes to detach cells. Then, DMEM (GIBCO BRL, Cat. No. 12800-058) was added thereto to obtain 10 ml of cell suspension, which was then transferred to a 15 ml conical tube. The cell suspension in the conical tube was centrifuged at a rate of 1,500 rpm for 5 minutes, and then the supernatant was removed therefrom. 10 ml of 5% FBS-containing DMEM (GIBCO BRL, Cat. No. 12800-058) was added to the conical tube to obtain a cell suspension. The obtained cell suspension was divided into two groups each having an amount of 5 ml. […] The cell suspensions of the group 1 and 2 were diluted with 5% FBS-including DMEM (GIBCO BRL, Cat. No. 12800-058) to adjust the cell concentration to about 2.5×10^5 cells/ml, respectively. 4 ml of each cell suspension of the group 1 and 2 (each having about 2.5×10^5 cells/ml of cells) was transferred to a 15 ml tube, and then […] of 5% FBS-containing DMEM (GIBCO BRL, Cat. No. 12800-058) was added thereto. […] 10 ml of each of the obtained mixtures was transferred to a T-75 culture flask, followed by culturing for 3 days in a CO2 incubator for 3 days (passage 1 sub-culturing).
The medium was removed from the cell culture (80 to 90% confluent) which was cultured in the T-75 culture flask for 3 days. The obtained cells were washed twice with 10 ml of a phosphate buffer solution. 2 ml of trypsin-EDTA was added thereto, followed by incubating at a temperature of 37° C. for 10 minutes to detach the cells. Then, DMEM (GIBCO BRL, Cat. No. 12800-058) was added thereto to obtain 10 ml of cell suspension, which was then transferred to a 15 ml conical tube. The cell suspension in the conical tube was centrifuged at a rate of 1,500 rpm for 5 minutes, and then the supernatant was removed therefrom. 10 ml of 10% FBS-containing DMEM (GIBCO BRL, Cat. No. 12800-058) was added to the conical tube to obtain a cell suspension. The obtained cell suspension was divided into two groups each having an amount of 5 ml. […] The cell suspensions of the group 1 and 2 were diluted with 10% FBS-including DMEM (GIBCO BRL, Cat. No. 12800-058) to adjust the cell concentration to about 2.5×10^5 cells/ml, respectively. 4 ml of each cell suspension of the group 1 and 2 (each having about 2.5×10^5 cells/ml of cells) was transferred to a 15 ml tube, and then 5.5 ml of 10% FBS-containing DMEM (GIBCO BRL, Cat. No. 12800-058) was added thereto. […] 10 ml of each of the obtained mixtures was transferred to a T-75 culture flask, followed by culturing […] (passage 2 sub-culturing). The sub-culturing was performed twice more, and thus, passage 4 sub-culturing steps in total were performed.
Mycoplasma contamination was measured regarding the respective cells of the additional passages 1, 3, 6, 10, 12, 15, and 33 after the initial passage 4 treatments. Whether mycoplasma was removed was measured with a mycoplasma diagnosis kit (Promokine, Germany; Cellsafe Co., Ltd., Korea) according to the enclosed protocol. The resulting PCR products were electrophoresed on a 1% agarose gel to measure the mycoplasma contamination.
Sub-culturing was performed in the same manner as in (1), except that 2 μg/ml of the compound of Formula 3 was used as a reagent for removing mycoplasma , and the filters (Millipore) having pore sizes of 11, 20, 30, 60, 80, 90, and 100 μm and the filters (Falcon) having pore sizes of 40, 50, and 70 μm were used, and then, the mycoplasma contamination was measured.

In the case of `C=C/C=C/CC/C=C/C=C/C=C/CC/C=C/C(O)C(O)C1OC(C(O)C(O)C(=C)CCC(O)C2CC(O)C(O)C(C(O)C(O)/C=C(\C)CCC(O)CC(O)C(O)C(C)CC(O)C(O)CCCCCC(O)CCCC(O)/C=C/CC(O)/C=C/CC(O)CO)O2)CC(O)C1O` (centres unmarked) [AM3, amphidinol 3], the mycoplasma contamination (2 μg/ml, Pore size 11 μm, Passage 1 after treatment) is reported as “−”, the mycoplasma contamination (2 μg/ml, Pore size 11 μm, Passage 3 after treatment) is reported as “−” and the mycoplasma contamination (2 μg/ml, Pore size 11 μm, Passage 6 after treatment) is reported as “−”. The mycoplasma contamination (2 μg/ml, Pore size 11 μm, Passage 10 after treatment) was “−”, the mycoplasma contamination (2 μg/ml, Pore size 11 μm, Passage 12 after treatment) was “−” and the mycoplasma contamination (2 μg/ml, Pore size 11 μm, Passage 15 after treatment) was “−”. The mycoplasma contamination (2 μg/ml, Pore size 11 μm, Passage 33 after treatment) was “−”, the mycoplasma contamination (2 μg/ml, Pore size 20 μm, Passage 1 after treatment) was “−” and the mycoplasma contamination (2 μg/ml, Pore size 20 μm, Passage 3 after treatment) was “−”. The mycoplasma contamination (2 μg/ml, Pore size 20 μm, Passage 6 after treatment) was “−”, the mycoplasma contamination (2 μg/ml, Pore size 20 μm, Passage 10 after treatment) was “−” and the mycoplasma contamination (2 μg/ml, Pore size 20 μm, Passage 12 after treatment) was “−”. The mycoplasma contamination (2 μg/ml, Pore size 20 μm, Passage 15 after treatment) was “−”, the mycoplasma contamination (2 μg/ml, Pore size 20 μm, Passage 33 after treatment) was “−” and the mycoplasma contamination (2 μg/ml, Pore size 30 μm, Passage 1 after treatment) was “−”. For the same compound, the mycoplasma contamination (2 μg/ml, Pore size 30 μm, Passage 3 after treatment) was “−”, the mycoplasma contamination (2 μg/ml, Pore size 30 μm, Passage 6 after treatment) was “−” and the mycoplasma contamination (2 μg/ml, Pore size 30 μm, Passage 10 after treatment) was “−”. For the same compound, the mycoplasma contamination (2 μg/ml, Pore size 30 μm, Passage 12 after treatment) was “−”, the mycoplasma contamination (2 μg/ml, Pore size 30 μm, Passage 15 after treatment) was “−” and the mycoplasma contamination (2 μg/ml, Pore size 30 μm, Passage 33 after treatment) was “−”. The mycoplasma contamination (2 μg/ml, Pore size 40 μm, Passage 1 after treatment) was “−”, the mycoplasma contamination (2 μg/ml, Pore size 40 μm, Passage 3 after treatment) was “−” and the mycoplasma contamination (2 μg/ml, Pore size 40 μm, Passage 6 after treatment) was “−”. For the same compound, the mycoplasma contamination (2 μg/ml, Pore size 40 μm, Passage 10 after treatment) was “−”, the mycoplasma contamination (2 μg/ml, Pore size 40 μm, Passage 12 after treatment) was “−” and the mycoplasma contamination (2 μg/ml, Pore size 40 μm, Passage 15 after treatment) was “−”. The mycoplasma contamination (2 μg/ml, Pore size 40 μm, Passage 33 after treatment) was “−”, the mycoplasma contamination (2 μg/ml, Pore size 50 μm, Passage 1 after treatment) was “−” and the mycoplasma contamination (2 μg/ml, Pore size 50 μm, Passage 3 after treatment) was “−”. For the same compound, the mycoplasma contamination (2 μg/ml, Pore size 50 μm, Passage 6 after treatment) was “−”, the mycoplasma contamination (2 μg/ml, Pore size 50 μm, Passage 10 after treatment) was “−” and the mycoplasma contamination (2 μg/ml, Pore size 50 μm, Passage 12 after treatment) was “−”. For the same compound, the mycoplasma contamination (2 μg/ml, Pore size 50 μm, Passage 15 after treatment) was “−”, the mycoplasma contamination (2 μg/ml, Pore size 50 μm, Passage 33 after treatment) was “−” and the mycoplasma contamination (2 μg/ml, Pore size 60 μm, Passage 1 after treatment) was “−”. The mycoplasma contamination (2 μg/ml, Pore size 60 μm, Passage 3 after treatment) was “−”, the mycoplasma contamination (2 μg/ml, Pore size 60 μm, Passage 6 after treatment) was “−” and the mycoplasma contamination (2 μg/ml, Pore size 60 μm, Passage 10 after treatment) was “−”. For the same compound, the mycoplasma contamination (2 μg/ml, Pore size 60 μm, Passage 12 after treatment) was “−”, the mycoplasma contamination (2 μg/ml, Pore size 60 μm, Passage 15 after treatment) was “−” and the mycoplasma contamination (2 μg/ml, Pore size 60 μm, Passage 33 after treatment) was “−”. For the same compound, the mycoplasma contamination (2 μg/ml, Pore size 70 μm, Passage 1 after treatment) was “−”, the mycoplasma contamination (2 μg/ml, Pore size 70 μm, Passage 3 after treatment) was “−” and the mycoplasma contamination (2 μg/ml, Pore size 70 μm, Passage 6 after treatment) was “−”. For the same compound, the mycoplasma contamination (2 μg/ml, Pore size 70 μm, Passage 10 after treatment) was “−”, the mycoplasma contamination (2 μg/ml, Pore size 70 μm, Passage 12 after treatment) was “−” and the mycoplasma contamination (2 μg/ml, Pore size 70 μm, Passage 15 after treatment) was “−”. The mycoplasma contamination (2 μg/ml, Pore size 70 μm, Passage 33 after treatment) was “−”, the mycoplasma contamination (2 μg/ml, Pore size 80 μm, Passage 1 after treatment) was “−” and the mycoplasma contamination (2 μg/ml, Pore size 80 μm, Passage 3 after treatment) was “−”. For the same compound, the mycoplasma contamination (2 μg/ml, Pore size 80 μm, Passage 6 after treatment) was “−”, the mycoplasma contamination (2 μg/ml, Pore size 80 μm, Passage 10 after treatment) was “−” and the mycoplasma contamination (2 μg/ml, Pore size 80 μm, Passage 12 after treatment) was “−”. For the same compound, the mycoplasma contamination (2 μg/ml, Pore size 80 μm, Passage 15 after treatment) was “−”, the mycoplasma contamination (2 μg/ml, Pore size 80 μm, Passage 33 after treatment) was “−” and the mycoplasma contamination (2 μg/ml, Pore size 90 μm, Passage 1 after treatment) was “−”. The mycoplasma contamination (2 μg/ml, Pore size 90 μm, Passage 3 after treatment) was “−”, the mycoplasma contamination (2 μg/ml, Pore size 90 μm, Passage 6 after treatment) was “−” and the mycoplasma contamination (2 μg/ml, Pore size 90 μm, Passage 10 after treatment) was “−”. For the same compound, the mycoplasma contamination (2 μg/ml, Pore size 90 μm, Passage 12 after treatment) was “−”, the mycoplasma contamination (2 μg/ml, Pore size 90 μm, Passage 15 after treatment) was “−” and the mycoplasma contamination (2 μg/ml, Pore size 90 μm, Passage 33 after treatment) was “−”. For the same compound, the mycoplasma contamination (2 μg/ml, Pore size 100 μm, Passage 1 after treatment) was “−”, the mycoplasma contamination (2 μg/ml, Pore size 100 μm, Passage 3 after treatment) was “−” and the mycoplasma contamination (2 μg/ml, Pore size 100 μm, Passage 6 after treatment) was “−”. The mycoplasma contamination (2 μg/ml, Pore size 100 μm, Passage 10 after treatment) was “−”, the mycoplasma contamination (2 μg/ml, Pore size 100 μm, Passage 12 after treatment) was “−” and the mycoplasma contamination (2 μg/ml, Pore size 100 μm, Passage 15 after treatment) was “−”. For the same compound, the mycoplasma contamination (2 μg/ml, Pore size 100 μm, Passage 33 after treatment) was “−” and the mycoplasma contamination (filter having a pore size of 10 to 100 μM) was “completely removed”.

Source: US8815565B2, “Method for culturing mycoplasma contamination-free cells and method for removing mycoplasma contamination of cells” (Cellsafe Co., Ltd., priority 2010, dated 2014)
